In US20040023962A1, “Use of medicaments” (priority 2000, published 2004):
Like-named read-outs stand apart in the source and are kept apart here.

Tests used:
[1] = tested on: cochlea nerve compound action potential (CAP); assay: Otoprotection after acute noise insult: CAP threshold shifts; assay type: in vivo, guinea pig; conditions: 20 mg/kg about 2 hours before 15 minutes filtered (5-20 KHz) noise; 8, 16, 24 and 30 KHz
Experimental: Sedation was achieved using an intramuscular injection of 0.5 mL/kg medetomidine followed by an intraperitoneal injection of 6 mL/kg fentanyl approximately 10 minutes later (loss of the pedal reflex was used to determine sufficient sedation for surgery).
The cochlea nerve compound action potential (CAP) was generated in response to discrete acoustic stimuli. It was used to determine both control and treatment related changes in auditory thresholds by measuring changes in CAP latency (milliseconds) and amplitude (μVolts).
Tone ‘pip’ stimuli of 5 millisecond duration were computer generated at 8, 16, 24 and 30 KHz and fed to an attenuator (1 dB resolution). The tone pip was then fed to a Bruel and Kjaer 4192, (microphone) serving as an acoustic driver, which was placed inside an ear speculum coupled to the ear canal. CAP averaging was performed between ×50 to 100 times and the CAP threshold was determined by visual inspection of the recorded time signal. Accuracy was typically between 1-3 dB, using a CAP detection criterion of approximately 1 μV.
Animals were then exposed to 15 minutes filtered (5-20 KHz) free field noise (approximately […]) during which ESAC measurements were made at 5 minute intervals.

[2] = Assay of plasma and perilymph for lamotrigine (pharmacokinetic evaluation); assay type: in vivo; conditions: guinea pig, single oral dose 20 mg/kg; for concentration at 15 h / Tmax / Cmax: male, albino
Experimental: All solutions were prepared fresh on the day of dosing and stored at 2-8° C., protected from light, between dosing sessions. In order to establish the otoprotective properties of LTG, a pharmacokinetic evaluation study was designed to establish penetration of LTG into guinea pig perilymph and plasma. A total of 17 healthy adult male albino guinea pigs were used. […] Two untreated control animals were also sampled for comparison. […] After the terminal blood sample had been taken, the animal received an overdose of anaesthetic and was decapitated. The bulla was removed and thoroughly cleaned to remove all tissue and fluids. […] Levels of LTG in both plasma and perilymph were determined using a protein precipitation extraction procedure using high performance liquid chromatography (HPLC) with ultraviolet (UV) detection. The LTG retention time was 5.4 minutes and quantification was carried out using peak areas.

[3] = tested on: supramaximal electroshock (MES) model; conditions: rat; cited from earlier work

levels in perilymph relative to plasma ([2]; timepoints 1-15 hours): approximately twice | concentration at 15 h ([2]; perilymph, read-out: mean perilymph LTG level after the 15 hour sampling period): 3200 ng/mL | Tmax ([2]; perilymph, read-out: perilymph approximate mean time of maximum concentration (Tmax)): ~2 h | Cmax ([2]; perilymph, read-out: perilymph mean maximum concentration (Cmax)): 6140 ng/mL | concentration at 15 h ([2]; plasma, read-out: mean plasma LTG level after the 15 hour sampling period): 1000 ng/mL | Cmax ([2]; plasma, read-out: mean plasma Cmax): 3590 ng/mL | Tmax ([2]; plasma, read-out: plasma Tmax): 1 h
SMILES: Nc1nnc(-c2cccc(Cl)c2Cl)c(N)n1 [LTG, 3,5-Diamino-6-(2,3-dichlorophenyl)-1,2,4-triazine]
CAP threshold shifts after noise versus noise control [1]: mean thresholds were higher in the LTG treated animals and reached statistical significance at 8 kHz | effective oral dose (ED50) [3]: 6.8 mg/kg
